Consider one compound from patent US5162523A, “Cephalosporin antibacterial compounds” (Hoffmann-La Roche Inc., priority 1990, dated 1992).

The nature of this data set: Stability of the product (observation during preparation). To be noted: observed during preparation and purification. It counts as physicochemical.

Counter-ions that a name gives are not always drawn.

For the compound `CCn1cc(C(=O)O)c(=O)c2cc(F)c(N3CCN(C=N[C@@H]4C(=O)N5[C@@H]4SC(C)(C)[C@@H]5C(=O)O)CC3)nc21` [Compound H, [2S-(2α,5α,6β)]-7-[4-[[(2-Carboxy-2,3-dimethyl-7-oxo-4-thia-1-azabicyclo[3.2.0]-hept-6-yl)imino]methyl]-1-piperazinyl]-1-ethyl-6-fluoro-1,4-dihydro-4-oxo-1,8-naphthyridine-carboxylic acid disodium salt], the “stability of the product” value is recorded as “very unstable”.
